In publication PMC2791543 (Cancer cell, 2009):

What was measured:
αvβ3 integrin = αvβ3 integrin (Homo sapiens, UniProt P05106+P06756); assay: ELISA affinity measurement on purified αvβ3 integrin; format: binding; details: compared with iRGD
αvβ5 integrin = αvβ5 integrin (Homo sapiens, UniProt P06756+P18084); assay: ELISA affinity measurement on purified αvβ5 integrin; format: binding; details: compared with iRGD
[1] = test system: de novo pancreatic ductal adenocarcinoma; assay: In vivo peptide homing in PDAC mice; details: FAM-labeled peptide, approximately 200 µg, 2 hrs circulation
PPC1 cells = assay: Inhibition of CRGDK phage binding to PPC1 cells; format: cell-based, human
Neuropilin-1 = biological target: T1, Neuropilin-1 (Rattus norvegicus, UniProt Q9QWJ9); assay: competition ELISA
T1 chain: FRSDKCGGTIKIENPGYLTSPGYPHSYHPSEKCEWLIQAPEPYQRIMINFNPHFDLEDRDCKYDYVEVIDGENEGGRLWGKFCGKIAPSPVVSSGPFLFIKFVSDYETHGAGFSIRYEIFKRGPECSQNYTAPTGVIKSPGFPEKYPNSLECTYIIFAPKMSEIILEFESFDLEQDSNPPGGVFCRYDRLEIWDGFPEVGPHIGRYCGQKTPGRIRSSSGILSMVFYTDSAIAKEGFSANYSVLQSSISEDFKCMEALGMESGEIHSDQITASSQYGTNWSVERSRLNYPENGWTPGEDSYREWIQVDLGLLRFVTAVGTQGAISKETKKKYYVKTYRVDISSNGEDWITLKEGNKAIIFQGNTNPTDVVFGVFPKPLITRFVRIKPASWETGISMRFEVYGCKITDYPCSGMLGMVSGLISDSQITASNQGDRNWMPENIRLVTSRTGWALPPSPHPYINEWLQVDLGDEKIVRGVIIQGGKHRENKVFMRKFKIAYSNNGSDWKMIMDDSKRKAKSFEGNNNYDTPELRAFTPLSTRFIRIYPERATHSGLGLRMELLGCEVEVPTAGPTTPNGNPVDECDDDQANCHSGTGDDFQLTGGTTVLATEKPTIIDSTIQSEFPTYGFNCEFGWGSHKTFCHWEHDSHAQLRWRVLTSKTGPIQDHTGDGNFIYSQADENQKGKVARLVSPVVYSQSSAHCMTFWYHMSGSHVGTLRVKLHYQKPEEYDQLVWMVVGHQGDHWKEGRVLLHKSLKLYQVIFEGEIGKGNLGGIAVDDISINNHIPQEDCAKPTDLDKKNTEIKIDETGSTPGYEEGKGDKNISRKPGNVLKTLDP

Sequence of αvβ3 integrin (P06756 31-889 limits assumed): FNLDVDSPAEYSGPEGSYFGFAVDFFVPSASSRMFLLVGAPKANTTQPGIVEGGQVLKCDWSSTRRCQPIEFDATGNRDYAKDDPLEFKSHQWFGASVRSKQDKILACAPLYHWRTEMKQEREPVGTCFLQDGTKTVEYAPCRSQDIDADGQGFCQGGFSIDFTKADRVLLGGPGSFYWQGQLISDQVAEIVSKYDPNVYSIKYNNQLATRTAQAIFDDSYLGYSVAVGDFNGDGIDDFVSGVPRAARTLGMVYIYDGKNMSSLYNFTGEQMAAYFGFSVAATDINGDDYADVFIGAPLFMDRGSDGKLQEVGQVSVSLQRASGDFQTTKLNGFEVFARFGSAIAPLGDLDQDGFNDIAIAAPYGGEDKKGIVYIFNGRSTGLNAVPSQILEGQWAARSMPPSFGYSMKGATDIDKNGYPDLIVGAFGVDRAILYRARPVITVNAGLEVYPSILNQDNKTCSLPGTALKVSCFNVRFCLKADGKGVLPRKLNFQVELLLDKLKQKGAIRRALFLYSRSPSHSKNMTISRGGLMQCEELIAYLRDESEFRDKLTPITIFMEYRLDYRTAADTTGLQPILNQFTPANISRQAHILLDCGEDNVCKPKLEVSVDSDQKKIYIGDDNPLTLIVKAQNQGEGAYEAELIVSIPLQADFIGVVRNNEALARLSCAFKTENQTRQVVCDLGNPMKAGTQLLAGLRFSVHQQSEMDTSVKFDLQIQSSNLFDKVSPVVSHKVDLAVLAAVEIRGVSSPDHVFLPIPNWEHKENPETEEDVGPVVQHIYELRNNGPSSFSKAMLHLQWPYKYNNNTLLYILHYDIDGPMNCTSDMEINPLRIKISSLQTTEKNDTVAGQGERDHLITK
Sequence of αvβ3 integrin (P06756 891-1048 limits assumed): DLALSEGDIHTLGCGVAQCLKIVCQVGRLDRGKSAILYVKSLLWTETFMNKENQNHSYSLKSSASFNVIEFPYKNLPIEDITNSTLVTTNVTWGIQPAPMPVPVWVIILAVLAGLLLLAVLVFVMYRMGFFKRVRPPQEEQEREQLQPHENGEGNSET
Sequence of αvβ3 integrin (P05106 27-788): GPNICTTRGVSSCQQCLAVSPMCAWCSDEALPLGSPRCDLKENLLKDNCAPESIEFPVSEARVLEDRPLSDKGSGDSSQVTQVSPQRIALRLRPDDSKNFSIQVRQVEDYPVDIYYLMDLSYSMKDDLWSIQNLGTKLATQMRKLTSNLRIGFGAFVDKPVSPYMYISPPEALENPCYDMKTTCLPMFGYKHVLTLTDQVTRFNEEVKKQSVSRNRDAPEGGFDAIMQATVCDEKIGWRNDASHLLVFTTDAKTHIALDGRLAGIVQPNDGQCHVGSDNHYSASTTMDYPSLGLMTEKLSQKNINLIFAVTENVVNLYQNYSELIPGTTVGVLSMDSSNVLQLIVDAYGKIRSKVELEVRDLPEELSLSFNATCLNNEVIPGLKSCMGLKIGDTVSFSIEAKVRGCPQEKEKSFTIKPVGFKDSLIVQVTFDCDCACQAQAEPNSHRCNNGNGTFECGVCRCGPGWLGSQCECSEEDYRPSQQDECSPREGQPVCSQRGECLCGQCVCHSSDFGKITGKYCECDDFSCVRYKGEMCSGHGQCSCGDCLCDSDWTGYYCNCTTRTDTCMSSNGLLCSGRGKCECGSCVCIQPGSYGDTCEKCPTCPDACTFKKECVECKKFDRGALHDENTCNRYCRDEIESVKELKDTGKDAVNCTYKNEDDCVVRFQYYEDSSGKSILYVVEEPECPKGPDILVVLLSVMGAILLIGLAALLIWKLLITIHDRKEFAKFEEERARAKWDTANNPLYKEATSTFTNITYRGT
Sequence of αvβ5 integrin (P06756 31-889 limits assumed): as the sequence (P06756 31-889 limits assumed) above
Sequence of αvβ5 integrin (P06756 891-1048 limits assumed): as the sequence (P06756 891-1048 limits assumed) above
Sequence of αvβ5 integrin (P18084 24-799): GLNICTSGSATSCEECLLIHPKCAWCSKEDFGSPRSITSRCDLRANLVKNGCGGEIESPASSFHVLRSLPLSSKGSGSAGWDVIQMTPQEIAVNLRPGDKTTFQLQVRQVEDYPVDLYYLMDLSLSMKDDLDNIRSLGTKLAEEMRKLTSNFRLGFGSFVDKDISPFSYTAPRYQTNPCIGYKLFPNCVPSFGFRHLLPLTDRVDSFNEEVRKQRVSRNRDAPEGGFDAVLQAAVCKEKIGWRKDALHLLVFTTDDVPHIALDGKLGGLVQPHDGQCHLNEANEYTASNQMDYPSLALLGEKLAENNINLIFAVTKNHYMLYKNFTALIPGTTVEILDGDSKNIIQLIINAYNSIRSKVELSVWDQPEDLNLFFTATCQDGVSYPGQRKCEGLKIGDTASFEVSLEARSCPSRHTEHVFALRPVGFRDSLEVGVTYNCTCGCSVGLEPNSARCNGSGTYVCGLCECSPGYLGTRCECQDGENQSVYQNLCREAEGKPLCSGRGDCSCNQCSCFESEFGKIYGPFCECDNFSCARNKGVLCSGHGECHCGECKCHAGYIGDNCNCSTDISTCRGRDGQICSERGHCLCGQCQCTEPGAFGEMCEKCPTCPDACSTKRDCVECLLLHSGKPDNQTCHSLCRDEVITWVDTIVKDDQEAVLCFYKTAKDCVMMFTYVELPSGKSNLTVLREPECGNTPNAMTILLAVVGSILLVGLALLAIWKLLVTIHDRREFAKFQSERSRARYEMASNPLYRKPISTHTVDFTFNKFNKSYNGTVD

CRGDC
affinity for αvβ3, by ability to block iRGD binding (αvβ3 integrin): in the same range
affinity for αvβ5, by ability to block iRGD binding (αvβ5 integrin): in the same range

CRGEKGPDC [iRGE]
tumor fluorescence after i.v. injection [1]: minimal tumor fluorescence

RPARPAR
inhibition of CRGDK phage binding to PPC1 cells by peptide (PPC1 cells): inhibited

B1: CRGDK (peptide)
chain: CRGDK
Kd (Neuropilin-1): 1.4 µM
